Results from US7427488B2, “Purified and isolated platelet calcium channel nucleic acids and polypeptides and therapeutic and screening methods using same” (The University of North Carolina at Chapel Hill, priority 2000, dated 2008).

How the values were obtained:
Format in all cases: cell-based, human
[1] = test system: platelet VDCC (thrombin-activated platelets); assay: Flow cytometric analysis of [Ca2+]i in thrombin-activated platelets; conditions: for effect on [Ca2+]i (in words): thrombin-activated platelets
Experimental: The conduction of calcium by the VDCC is measured in vitro by measuring changes in cytoplasmic free (ionized) calcium concentrations. Cytoplasmic calcium concentrations are measured by performing flow cytometric analysis with the calcium indicators fluo-3 and fura red as detailed by Novak & Rabinovitch, 1994. Briefly, platelets in whole blood, platelet rich plasma or biological buffers are incubated with esters of fluo-3 and fura red, and then aspirated into the flow cytometric instrument for measurement of calcium-dependent fluorescent changes. Cytoplasmic calcium concentrations are calculated from the ratio or fluo-3 and fura red relative fluorescence intensities. Experiments are performed with increasing doses of VDCC inhibitors with platelets that are in the resting state and subjected to different concentrations of activation agonists and VDCC antagonists and agonists.
(§1) Human blood was collected in acid-citrate-dextrose (ACD, 85 mM trisodium citrate, 70 mM citric acid, 111 mM dextrose). Platelet rich plasma (PRP) was prepared by centrifugation of anticoagulated blood at 25° C. for 8 minutes at 200×g. Platelets were separated from plasma via gel filtration by applying the PRP to a 2.7×10 cm SEPHAROSE™ CL4B column (Amersham Biosciences Corp., Piscataway, N.J., United States of America) equilibrated with modified Tyrode's buffer (145 mM NaCl, 4 mM KCl, 1 mM MgSO4, 6 mM glucose, 10 mM Na-HEPES). Gel filtered platelets were collected and adjusted to a concentration of about 200×10^6 platelets/ml.
PRP (prepared as above) was incubated with 5 μM Fura 2-AM and 5 μM Fluo 3-AM for 20 minutes at 37° C. […] Thrombin was then added to a final concentration of 0.0167, 0.05, 0.167 or 0.5 units/ml and mean cell fluorescence (MCF) of Fura 2 and Fluo 3 was measured at 1 minute on a FACSCAN™ (BD Biosciences, San Jose, Calif., United States of America) flow cytometer as per Novak & Rabinovitch, 1994. The ratio of fluo 3 to fura 2 MCF was calculated and compared to controls for each experimental condition.

[2] = test system: gel-filtered platelets; assay: Platelet aggregation (Chrono-log aggregometer); conditions: 50 nM nitrendipine or 5 μM Bay K(+); various concentrations of thrombin
Experimental: as §1
Gel-filtered platelets at about 200×10^6/ml were incubated for 2 hours with 1:200 MA3-920, 50 nM nitrendipine, 5 μM Bay K(−), or 5 μM Bay K(+). […] Results were analyzed with the AGGROLINK® software (Chrono-log Corp.).

[3] = test system: platelet surface activation markers; assay: Cell surface markers of platelet activation, overall statement; conditions: Annexin V, PAC1, CD62
Experimental: as §1
(§2) Platelets were stained for cell surface activation markers according to “Flow Cytometric Analysis of Platelets”. Monoclonal Antibodies Source Book. Vol. Section 2.19 (Becton, Dickinson And Co., Franklin Lakes, N.J., United States of America). Briefly, after treatment with agonists or antagonists as above, cells were activated with 0.167 units/ml thrombin (concentration chosen based on [Ca^2+ ]i studies) for 1 minute in the presence of 1 μM CaCl2, and then stained with the combination of CD61 PerCP and Annexin V FITC, or PAC-1 FITC, CD61 PerCP, and CD62 PE for 15 minutes at room temperature in the dark. […] Cells were analyzed on a FACSCAN™ flow cytometer. Mean cell fluorescence (MCF) was compared to control platelets (thrombin only) for each experimental condition. […]

[4] = test system: Annexin-V (phosphatidylserine) on platelet surface; assay: Cell surface markers of platelet activation by flow cytometry: Annexin V binding; conditions: thrombin-activated platelets
Experimental: as §1, §2

[5] = test system: PAC1 (activated GPIIb/IIIa) on platelet surface; assay: Cell surface markers of platelet activation by flow cytometry: PAC1; conditions: thrombin-activated platelets
Experimental: as §1, §2

[6] = test system: CD62 (PADGEM; P-selectin) on platelet surface; assay: Cell surface markers of platelet activation by flow cytometry: CD62; conditions: thrombin-activated platelets
Experimental: as §1, §2

COC(=O)C1=C(C)NC(C)=C([N+](=O)[O-])[C@@H]1c1ccccc1C(F)(F)F [Bay K (+)]
effect on [Ca2+]i (in words) [1]: no significant effect | effect on (the rate of) platelet aggregation (in words) [2]: no significant effect | effect on platelet surface activation markers (in words) [3]: no significant effect

COC(=O)C1=C(C)NC(C)=C([N+](=O)[O-])[C@H]1c1ccccc1C(F)(F)F [Bay K (−)]
[Ca2+]i ([1]; 5 μM, at one minute, thrombin 0.0167 to 0.5 units/ml (FIG. 8)): increase | effect on [Ca2+]i (in words) [1]: trend towards increased | increase in annexin V binding [4]: 56% | decrease in PAC1 [5]: 9% | decrease in CD62 [6]: 4%

CCOC(=O)C1=C(C)NC(C)=C(C(=O)OC)C1c1cccc([N+](=O)[O-])c1 (stereo not shown) [Nitrendipine, nitrendipine]
reduction (decrease) in annexin V binding / PS exposure [4]: 22% | effect on (the rate of) platelet aggregation (in words) [2]: no effect
